Results as given in the supplement of paper PMC10307832.

Tests used:
Experiment in all cases: relative viability (nuclei count vs DMSO), 5 days (fraction); higher = more cells survive
[1] = test system: A-427
Method in brief: (§1)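 Five library-drug doses in √10 steps were combined with a fixed anchor-drug dose, or a single drug was given alone, by pin tool to lung cancer cell lines in 1536-well plates the day after seeding. Nuclei were stained and counted after 5 days. Relative viability is the nuclei count in treated wells over that in vehicle wells, taken as the median of duplicate plates.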

[2] = test system: COR-L 105
Method in brief: as §1

[3] = test system: EPLC-272H
Method in brief: as §1

[4] = test system: HCC-366
Method in brief: as §1

[5] = test system: HCC-78
Method in brief: as §1

[6] = test system: HOP-62
Method in brief: as §1

[7] = test system: LC-2-ad
Method in brief: as §1

[8] = test system: LU99A
Method in brief: as §1

[9] = test system: LXF-289
Method in brief: as §1

[10] = test system: NCI-H1666
Method in brief: as §1

[11] = test system: NCI-H1792
Method in brief: as §1

[12] = test system: NCI-H1793
Method in brief: as §1

[13] = test system: NCI-H1915
Method in brief: as §1

[14] = test system: NCI-H1944
Method in brief: as §1

[15] = test system: NCI-H2009
Method in brief: as §1

[16] = test system: NCI-H2085
Method in brief: as §1

[17] = test system: NCI-H2170
Method in brief: as §1

[18] = test system: NCI-H358
Method in brief: as §1

[19] = test system: NCI-H460
Method in brief: as §1

[20] = test system: SK-LU-1
Method in brief: as §1

[21] = test system: SW 900
Method in brief: as §1

[22] = test system: UMC-11
Method in brief: as §1

SMILES: COc1nc(C)cnc1NS(=O)(=O)c1cccnc1-c1ccc(-c2nnco2)cc1 [Zibotentan] + Nc1ncn([C@H]2C[C@H](O)[C@@H](CO)O2)c(=O)n1 [Decitabine] (partner 2 µM)
- relative viability ([1]; first compound 0.08 µM): 0.537
- relative viability ([1]; first compound 0.253 µM): 0.542
- relative viability ([1]; first compound 0.8 µM): 0.613
- relative viability ([1]; first compound 2.53 µM): 0.582
- relative viability ([2]; first compound 0.08 µM): 0.634
- relative viability ([2]; first compound 0.253 µM): 0.609
- relative viability ([2]; first compound 0.8 µM): 0.711
- relative viability ([2]; first compound 2.53 µM): 0.615
- relative viability ([3]; first compound 0.08 µM): 0.41
- relative viability ([3]; first compound 0.253 µM): 0.304
- relative viability ([3]; first compound 0.8 µM): 0.366
- relative viability ([3]; first compound 2.53 µM): 0.394
- relative viability ([4]; first compound 0.08 µM): 0.391
- relative viability ([4]; first compound 0.253 µM): 0.317
- relative viability ([4]; first compound 0.8 µM): 0.331
- relative viability ([4]; first compound 2.53 µM): 0.358
- relative viability ([5]; first compound 0.08 µM): 0.795
- relative viability ([5]; first compound 0.253 µM): 0.564
- relative viability ([5]; first compound 0.8 µM): 0.68
- relative viability ([5]; first compound 2.53 µM): 0.656
- relative viability ([6]; first compound 0.08 µM): 0.169
- relative viability ([6]; first compound 0.253 µM): 0.19
- relative viability ([6]; first compound 0.8 µM): 0.209
- relative viability ([6]; first compound 2.53 µM): 0.207
- relative viability ([7]; first compound 0.08 µM): 0.66
- relative viability ([7]; first compound 0.253 µM): 0.816
- relative viability ([7]; first compound 0.8 µM): 0.718
- relative viability ([7]; first compound 2.53 µM): 0.781
- relative viability ([8]; first compound 0.08 µM): 0.933
- relative viability ([8]; first compound 0.253 µM): 0.848
- relative viability ([8]; first compound 0.8 µM): 0.95
- relative viability ([8]; first compound 2.53 µM): 1.06
- relative viability ([9]; first compound 0.08 µM): 0.357
- relative viability ([9]; first compound 0.253 µM): 0.346
- relative viability ([9]; first compound 0.8 µM): 0.409
- relative viability ([9]; first compound 2.53 µM): 0.367
- relative viability ([10]; first compound 0.08 µM): 0.71
- relative viability ([10]; first compound 0.253 µM): 0.685
- relative viability ([10]; first compound 0.8 µM): 0.745
- relative viability ([10]; first compound 2.53 µM): 0.56
- relative viability ([11]; first compound 0.08 µM): 0.491
- relative viability ([11]; first compound 0.253 µM): 0.549
- relative viability ([11]; first compound 0.8 µM): 0.547
- relative viability ([11]; first compound 2.53 µM): 0.575
- relative viability ([12]; first compound 0.08 µM): 0.503
- relative viability ([12]; first compound 0.253 µM): 0.471
- relative viability ([12]; first compound 0.8 µM): 0.528
- relative viability ([12]; first compound 2.53 µM): 0.635
- relative viability ([13]; first compound 0.08 µM): 0.248
- relative viability ([13]; first compound 0.253 µM): 0.262
- relative viability ([13]; first compound 0.8 µM): 0.27
- relative viability ([13]; first compound 2.53 µM): 0.257
- relative viability ([14]; first compound 0.08 µM): 0.433
- relative viability ([14]; first compound 0.253 µM): 0.431
- relative viability ([14]; first compound 0.8 µM): 0.425
- relative viability ([14]; first compound 2.53 µM): 0.426
- relative viability ([15]; first compound 0.08 µM): 0.404
- relative viability ([15]; first compound 0.253 µM): 0.398
- relative viability ([15]; first compound 0.8 µM): 0.417
- relative viability ([15]; first compound 2.53 µM): 0.377
- relative viability ([16]; first compound 0.08 µM): 0.566
- relative viability ([16]; first compound 0.253 µM): 0.54
- relative viability ([16]; first compound 0.8 µM): 0.592
- relative viability ([16]; first compound 2.53 µM): 0.56
- relative viability ([17]; first compound 0.08 µM): 0.449
- relative viability ([17]; first compound 0.253 µM): 0.463
- relative viability ([17]; first compound 0.8 µM): 0.341
- relative viability ([17]; first compound 2.53 µM): 0.463
- relative viability ([18]; first compound 0.08 µM): 0.196
- relative viability ([18]; first compound 0.253 µM): 0.139
- relative viability ([18]; first compound 2.53 µM): 0.222
- relative viability ([19]; first compound 0.08 µM): 0.444
- relative viability ([19]; first compound 0.253 µM): 0.287
- relative viability ([19]; first compound 0.8 µM): 0.464
- relative viability ([19]; first compound 2.53 µM): 0.509
- relative viability ([20]; first compound 0.08 µM): 0.805
- relative viability ([20]; first compound 0.253 µM): 0.688
- relative viability ([20]; first compound 0.8 µM): 0.722
- relative viability ([20]; first compound 2.53 µM): 0.642
- relative viability ([21]; first compound 0.08 µM): 0.482
- relative viability ([21]; first compound 0.253 µM): 0.345
- relative viability ([21]; first compound 0.8 µM): 0.49
- relative viability ([21]; first compound 2.53 µM): 0.438
- relative viability ([22]; first compound 0.08 µM): 0.576
- relative viability ([22]; first compound 0.253 µM): 0.532
- relative viability ([22]; first compound 0.8 µM): 0.634
- relative viability ([22]; first compound 2.53 µM): 0.697
